Test results: paper PMC5218480 (PLoS ONE, 2017)

Tested on: MV-4-11 cells
Assay: Gene expression microarray analysis (Affymetrix PrimeView) and GSEA
Assay type: cell-based, human
Design: RFU PODN (11730768_x_at) / Fold change /veh PODN (11730768_x_at) / RFU LINC00158 (11744669_a_at) / Fold change /veh LINC00158 (11744669_a_at) / RFU DUSP10 (11751237_a_at) / Fold change /veh DUSP10 (11751237_a_at) / RFU ID3 (11757404_x_at) / Fold change /veh ID3 (11757404_x_at) / RFU PLEKHG5 (11737974_s_at) / Fold change /veh PLEKHG5 (11737974_s_at) / RFU LRRC4B (11730491_at) / Fold change /veh LRRC4B (11730491_at) / RFU GIMAP4 (11747438_a_at) / Fold change /veh GIMAP4 (11747438_a_at) / RFU KRT8 (11758183_x_at) / Fold change /veh KRT8 (11758183_x_at) / RFU CNN1 (11734310_a_at) / Fold change /veh CNN1 (11734310_a_at) / RFU VPS37D (11726825_at) / Fold change /veh VPS37D (11726825_at) / RFU C10orf10 (11716522_x_at) / Fold change /veh C10orf10 (11716522_x_at) / RFU KIR2DL2 /// KIR2DL4 /// KIR2DL5A /// KIR2DL5B /// KIR2DS1 /// KIR2DS2 /// KIR2DS3 /// KIR2DS4 /// KIR3DL3 /// KIR3DL3 /// KIR3DS1 (11738374_at) / Fold change /veh KIR2DL2 /// KIR2DL4 /// KIR2DL5A /// KIR2DL5B /// KIR2DS1 /// KIR2DS2 /// KIR2DS3 /// KIR2DS4 /// KIR3DL3 /// KIR3DL3 /// KIR3DS1 (11738374_at) / RFU C1QL1 (11718748_at) / Fold change /veh C1QL1 (11718748_at) / RFU TMPRSS4 (11747572_a_at) / Fold change /veh TMPRSS4 (11747572_a_at) / RFU HAMP (11756126_x_at) / Fold change /veh HAMP (11756126_x_at) / RFU RNFT2 (11725882_a_at) / Fold change /veh RNFT2 (11725882_a_at) / RFU NR4A2 (11747474_a_at) / Fold change /veh NR4A2 (11747474_a_at) / RFU ABCC12 (11746883_a_at) / Fold change /veh ABCC12 (11746883_a_at) / RFU TMEM136 (11760407_x_at) / Fold change /veh TMEM136 (11760407_x_at) / RFU CLDN22 /// WWC2 (11732394_at) / Fold change /veh CLDN22 /// WWC2 (11732394_at) / RFU HLA-DPB1 (11760878_x_at) / Fold change /veh HLA-DPB1 (11760878_x_at) / RFU SPINT1 (11716480_a_at) / Fold change /veh SPINT1 (11716480_a_at) / RFU GAP43 (11754022_s_at) / Fold change /veh GAP43 (11754022_s_at) / RFU A4GNT (11735810_at) / Fold change /veh A4GNT (11735810_at) / RFU PRB3 (11715151_x_at) / Fold change /veh PRB3 (11715151_x_at) / RFU TUBB4B (11761932_at) / Fold change /veh TUBB4B (11761932_at) / RFU CAPN14 (11732068_a_at) / Fold change /veh CAPN14 (11732068_a_at) / RFU TMCC2 (11721928_a_at) / Fold change /veh TMCC2 (11721928_a_at) / RFU IRGQ (11745062_a_at) / Fold change /veh IRGQ (11745062_a_at) / RFU FAM174B (11720279_a_at) / Fold change /veh FAM174B (11720279_a_at) / RFU TMPRSS4 (11748680_a_at) / Fold change /veh TMPRSS4 (11748680_a_at) / RFU FAM212B (11763350_a_at) / Fold change /veh FAM212B (11763350_a_at) / RFU PLEKHG5 (11743358_a_at) / Fold change /veh PLEKHG5 (11743358_a_at) / RFU ZSCAN30 (11745921_a_at) / Fold change /veh ZSCAN30 (11745921_a_at) / RFU CMKLR1 (11741424_a_at) / Fold change /veh CMKLR1 (11741424_a_at) / RFU LOC101060620 /// MAPK8IP1 (11723275_at) / Fold change /veh LOC101060620 /// MAPK8IP1 (11723275_at) / RFU SPTSSB (11747773_x_at) / Fold change /veh SPTSSB (11747773_x_at) / RFU PRSS12 (11739890_at) / Fold change /veh PRSS12 (11739890_at) / RFU BIN1 (11741810_x_at) / Fold change /veh BIN1 (11741810_x_at) / RFU WNT11 (11732464_a_at) / Fold change /veh WNT11 (11732464_a_at) / RFU C10orf10 (11716521_a_at) / Fold change /veh C10orf10 (11716521_a_at) / RFU C5orf56 (11738089_at) / Fold change /veh C5orf56 (11738089_at) / RFU CYB561 (11721691_x_at) / Fold change /veh CYB561 (11721691_x_at) / RFU ANKRD19P (11752326_a_at) / Fold change /veh ANKRD19P (11752326_a_at) / RFU OR2T12 /// OR2T33 /// OR2T8 (11738714_s_at) / Fold change /veh OR2T12 /// OR2T33 /// OR2T8 (11738714_s_at) / RFU VCAN (11748164_a_at) / Fold change /veh VCAN (11748164_a_at) / RFU JSRP1 (11732532_at) / Fold change /veh JSRP1 (11732532_at) / RFU KRTAP10-11 (11738290_x_at) / Fold change /veh KRTAP10-11 (11738290_x_at) / RFU MYO3A (11730013_a_at) / Fold change /veh MYO3A (11730013_a_at) / RFU EBF3 (11725865_a_at) / Fold change /veh EBF3 (11725865_a_at) / RFU CAMK2N1 (11719241_x_at) / Fold change /veh CAMK2N1 (11719241_x_at) / RFU C5orf56 (11738088_a_at) / Fold change /veh C5orf56 (11738088_a_at) / RFU OLFML3 (11715873_a_at) / Fold change /veh OLFML3 (11715873_a_at) / RFU LOC100653217 /// NTM (11731650_a_at) / Fold change /veh LOC100653217 /// NTM (11731650_a_at) / RFU MAPK11 (11762145_a_at) / Fold change /veh MAPK11 (11762145_a_at) / RFU FIZ1 (11724087_x_at) / Fold change /veh FIZ1 (11724087_x_at) / RFU OASL (11726364_x_at) / Fold change /veh OASL (11726364_x_at) / RFU SOX15 (11748057_x_at) / Fold change /veh SOX15 (11748057_x_at) / RFU CD79A (11719716_a_at) / Fold change /veh CD79A (11719716_a_at) / RFU HIST1H1D (11736915_at) / Fold change /veh HIST1H1D (11736915_at) / RFU CASKIN2 (11723855_a_at) / Fold change /veh CASKIN2 (11723855_a_at) / RFU LOC730098 (11760151_x_at) / Fold change /veh LOC730098 (11760151_x_at) / RFU OR4N2 (11742367_at) / Fold change /veh OR4N2 (11742367_at) / RFU PRRT2 (11749266_a_at) / Fold change /veh PRRT2 (11749266_a_at) / RFU SNX32 (11753110_a_at) / Fold change /veh SNX32 (11753110_a_at) / RFU CDHR5 (11726645_a_at) / Fold change /veh CDHR5 (11726645_a_at) / RFU RCAN1 (11760418_a_at) / Fold change /veh RCAN1 (11760418_a_at) / RFU FAM167A (11723789_a_at) / Fold change /veh FAM167A (11723789_a_at) / RFU FAM26E (11764081_at) / Fold change /veh FAM26E (11764081_at) / RFU ISYNA1 (11749810_s_at) / Fold change /veh ISYNA1 (11749810_s_at) / RFU ACY1 (11761880_at) / Fold change /veh ACY1 (11761880_at) / RFU 11764098_at / Fold change /veh 11764098_at / RFU SAMD14 (11745864_x_at) / Fold change /veh SAMD14 (11745864_x_at) / RFU NPB (11741838_a_at) / Fold change /veh NPB (11741838_a_at) / RFU TMPRSS6 (11731388_a_at) / Fold change /veh TMPRSS6 (11731388_a_at) / RFU KRTAP10-2 (11738614_at) / Fold change /veh KRTAP10-2 (11738614_at) / RFU ARHGAP8 /// PRR5-ARHGAP8 (11727945_x_at) / Fold change /veh ARHGAP8 /// PRR5-ARHGAP8 (11727945_x_at) / RFU KRTAP5-7 /// NADSYN1 (11734609_at) / Fold change /veh KRTAP5-7 /// NADSYN1 (11734609_at) / RFU RASL12 (11751679_a_at) / Fold change /veh RASL12 (11751679_a_at) / RFU CDKN2B (11736163_a_at) / Fold change /veh CDKN2B (11736163_a_at) / RFU PRF1 (11729649_at) / Fold change /veh PRF1 (11729649_at) / RFU, ZNF638 /// ZNF638-IT1 / Fold change vs veh, ZNF638 /// ZNF638-IT1 / RFU, PANK3 / Fold change vs veh, PANK3 / RFU, SH3YL1 / Fold change vs veh, SH3YL1 / RFU, ZEB2 / Fold change vs veh, ZEB2 / RFU, NRIP1 / Fold change vs veh, NRIP1 / RFU, PTTG1IP / Fold change vs veh, PTTG1IP / RFU, CAPN2 / Fold change vs veh, CAPN2 / RFU, MED14 / Fold change vs veh, MED14 / RFU, SNORA58 / Fold change vs veh, SNORA58 / RFU, C1orf63 / Fold change vs veh, C1orf63 / RFU, LRRFIP1 / Fold change vs veh, LRRFIP1 / RFU, NDUFAF7 / Fold change vs veh, NDUFAF7 / RFU, SLC12A2 / Fold change vs veh, SLC12A2 / RFU, IBTK / Fold change vs veh, IBTK / RFU, ESF1 / Fold change vs veh, ESF1 / Fold change vs veh, TMEM50B / RFU, TAOK1 / Fold change vs veh, TAOK1 / RFU, ACBD3 / Fold change vs veh, ACBD3 / RFU, TMA16 / Fold change vs veh, TMA16 / RFU, RWDD3 / Fold change vs veh, RWDD3 / RFU, BCAT1 / Fold change vs veh, BCAT1 / RFU, EDEM3 / Fold change vs veh, EDEM3 / RFU, TMEM33 / Fold change vs veh, TMEM33 / RFU, WDR75 / Fold change vs veh, WDR75 / RFU, AHCTF1 / Fold change vs veh, AHCTF1 / RFU, TFRC / Fold change vs veh, TFRC / RFU, ZDHHC17 / Fold change vs veh, ZDHHC17 / RFU, NOM1 / Fold change vs veh, NOM1 / RFU, ARL8B / Fold change vs veh, ARL8B / RFU, ZBTB11 / Fold change vs veh, ZBTB11 / RFU, TAMM41 / Fold change vs veh, TAMM41 / RFU, KIAA1704 /// LOC100996395 / Fold change vs veh, KIAA1704 /// LOC100996395 / RFU, ING1 / Fold change vs veh, ING1 / RFU, TRMT61B / Fold change vs veh, TRMT61B / RFU, FUBP3 / Fold change vs veh, FUBP3 / RFU, TP53 / Fold change vs veh, TP53 / RFU, TNKS2 / Fold change vs veh, TNKS2 / RFU, ZFP14 / Fold change vs veh, ZFP14 / RFU, ACTR2 / Fold change vs veh, ACTR2 / RFU, PPP3R1 / Fold change vs veh, PPP3R1 / RFU, PIK3R1 / Fold change vs veh, PIK3R1 / RFU, HNRNPA1 / Fold change vs veh, HNRNPA1 / RFU, RNF170 / Fold change vs veh, RNF170 / RFU, ZNF28 / Fold change vs veh, ZNF28 / RFU, RNGTT / Fold change vs veh, RNGTT / RFU, OGT / Fold change vs veh, OGT / RFU, BRD1 / Fold change vs veh, BRD1 / RFU, MARS / Fold change vs veh, MARS / RFU, ZNF655 / Fold change vs veh, ZNF655 / RFU, FAHD1 / Fold change vs veh, FAHD1 / RFU, BDP1 / Fold change vs veh, BDP1 / RFU, LRRCC1 / Fold change vs veh, LRRCC1 / RFU, ARID1A / Fold change vs veh, ARID1A / RFU, ZNF146 / Fold change vs veh, ZNF146 / RFU, ZNF330 / Fold change vs veh, ZNF330 / RFU, GPN3 / Fold change vs veh, GPN3 / RFU, C9orf123 / Fold change vs veh, C9orf123 / RFU, N4BP2L2 / Fold change vs veh, N4BP2L2 / RFU, ARFIP1 / Fold change vs veh, ARFIP1 / RFU, FAM179B / Fold change vs veh, FAM179B / RFU, BCL10 / Fold change vs veh, BCL10 / RFU, UHRF1BP1L / Fold change vs veh, UHRF1BP1L / RFU, BET1 / Fold change vs veh, BET1 / RFU, CNOT2 / Fold change vs veh, CNOT2 / RFU, ZNF268 / Fold change vs veh, ZNF268 / Fold change vs veh, ZNF507 / RFU, DGCR2 / Fold change vs veh, DGCR2 / RFU, WDSUB1 / Fold change vs veh, WDSUB1 / Fold change vs veh, HSP90B1 /// MIR3652 / RFU, ADSS / Fold change vs veh, ADSS / RFU, GK / Fold change vs veh, GK / RFU, ZNF148 / Fold change vs veh, ZNF148 / RFU, TAF9 / Fold change vs veh, TAF9 / RFU, SLC1A5 / Fold change vs veh, SLC1A5 / RFU, SLMO2 / Fold change vs veh, SLMO2 / RFU, ABCC4 / Fold change vs veh, ABCC4 / RFU, LOC101060439 /// RAP1B / Fold change vs veh, LOC101060439 /// RAP1B / RFU, RFX7 / Fold change vs veh, RFX7 / RFU, GTPBP10 / Fold change vs veh, GTPBP10 / RFU, CNEP1R1 / Fold change vs veh, CNEP1R1 / RFU, BIVM-ERCC5 /// ERCC5 / Fold change vs veh, BIVM-ERCC5 /// ERCC5 / RFU, ILF3 / Fold change vs veh, ILF3 / RFU 11762660_at / Fold change /veh 11762660_at / RFU VCAN (11757783_s_at) / Fold change /veh VCAN (11757783_s_at) / RFU DDX43 (11728927_at) / Fold change /veh DDX43 (11728927_at) / RFU KRT8 (11758188_x_at) / Fold change /veh KRT8 (11758188_x_at) / RFU NKD1 (11759106_at) / Fold change /veh NKD1 (11759106_at) / RFU SRD5A1 (11742802_a_at) / Fold change /veh SRD5A1 (11742802_a_at) / RFU TPSAB1 /// TPSB2 (11721975_s_at) / Fold change /veh TPSAB1 /// TPSB2 (11721975_s_at) / RFU GSTM3 (11746129_a_at) / Fold change /veh GSTM3 (11746129_a_at) / RFU IL23R (11737362_x_at) / Fold change /veh IL23R (11737362_x_at) / RFU TMEM51 (11727254_a_at) / Fold change /veh TMEM51 (11727254_a_at) / RFU PIWIL2 (11732686_x_at) / Fold change /veh PIWIL2 (11732686_x_at) / RFU ORM1 (11744905_x_at) / Fold change /veh ORM1 (11744905_x_at) / RFU CCDC152 (11743942_at) / Fold change /veh CCDC152 (11743942_at) / RFU ECM1 (11717891_a_at) / Fold change /veh ECM1 (11717891_a_at) / RFU IL23R (11748794_a_at) / Fold change /veh IL23R (11748794_a_at) / RFU TNFAIP8L3 (11732012_x_at) / Fold change /veh TNFAIP8L3 (11732012_x_at) / RFU MBOAT4 (11741988_at) / Fold change /veh MBOAT4 (11741988_at) / RFU 11764193_at / Fold change /veh 11764193_at / RFU TMEM53 (11763286_at) / Fold change /veh TMEM53 (11763286_at) / RFU MAGEB2 (11727129_at) / Fold change /veh MAGEB2 (11727129_at) / RFU TMEM200A (11744735_a_at) / Fold change /veh TMEM200A (11744735_a_at) / RFU CCDC152 (11751479_a_at) / Fold change /veh CCDC152 (11751479_a_at) / RFU FAM211A (11726209_a_at) / Fold change /veh FAM211A (11726209_a_at) / RFU RGS16 (11746705_a_at) / Fold change /veh RGS16 (11746705_a_at) / RFU VCAN (11755009_s_at) / Fold change /veh VCAN (11755009_s_at) / RFU RHOB (11743442_s_at) / Fold change /veh RHOB (11743442_s_at) / RFU RGS16 (11720943_a_at) / Fold change /veh RGS16 (11720943_a_at) / RFU RGS16 (11720944_at) / Fold change /veh RGS16 (11720944_at) / RFU, VPS4B / Fold change vs veh, VPS4B / RFU, CREB1 / Fold change vs veh, CREB1 / RFU, DNAJC13 / Fold change vs veh, DNAJC13 / RFU, GNAQ / Fold change vs veh, GNAQ / RFU, CDK5R1 / Fold change vs veh, CDK5R1 / RFU, ZRANB3 / Fold change vs veh, ZRANB3 / RFU, CUL4A / Fold change vs veh, CUL4A / RFU, CCNY / Fold change vs veh, CCNY / RFU, UFL1 / Fold change vs veh, UFL1 / RFU, COG3 / Fold change vs veh, COG3 / RFU, DIAPH2 / Fold change vs veh, DIAPH2 / RFU, SKA2 / Fold change vs veh, SKA2 / RFU, AFF3 / Fold change vs veh, AFF3 / RFU, LMF1 / Fold change vs veh, LMF1 / RFU, IPO11 / Fold change vs veh, IPO11 / RFU, DFFB / Fold change vs veh, DFFB / RFU, FOXP1 / Fold change vs veh, FOXP1 / RFU, CARD8 / Fold change vs veh, CARD8 / RFU, STRN3 / Fold change vs veh, STRN3 / RFU, ADK / Fold change vs veh, ADK / RFU, RASSF2 / Fold change vs veh, RASSF2 / RFU, WIPF1 / Fold change vs veh, WIPF1 / RFU, LARP1B / Fold change vs veh, LARP1B / RFU, RASA1 / Fold change vs veh, RASA1 / RFU, RB1 / Fold change vs veh, RB1 / RFU, PPFIA1 / Fold change vs veh, PPFIA1 / RFU, MAT2A / Fold change vs veh, MAT2A / RFU, CCT5 / Fold change vs veh, CCT5 / RFU, WDR92 / Fold change vs veh, WDR92 / RFU, CUX1 / Fold change vs veh, CUX1 / RFU, TTC7A / Fold change vs veh, TTC7A / RFU, TMEM135 / Fold change vs veh, TMEM135 / RFU, DEPTOR / Fold change vs veh, DEPTOR / RFU, CPM / Fold change vs veh, CPM / RFU, DNAJB6 / Fold change vs veh, DNAJB6 / RFU, CACNA2D3 / Fold change vs veh, CACNA2D3 / RFU, DTX4 / Fold change vs veh, DTX4 / RFU, TFCP2 / Fold change vs veh, TFCP2 / RFU, GMCL1 /// GMCL1P1 / Fold change vs veh, GMCL1 /// GMCL1P1 / RFU, AEBP2 / Fold change vs veh, AEBP2 / RFU, SNHG1 /// SNORD22 /// SNORD25 /// SNORD26 /// SNORD27 /// SNORD28 /// SNORD29 /// SNORD31 / Fold change vs veh, SNHG1 /// SNORD22 /// SNORD25 /// SNORD26 /// SNORD27 /// SNORD28 /// SNORD29 /// SNORD31 / Fold change (Aza/veh), C12orf56 (ProbeSet 11735607_a_at) / Fold change (ACY-1035/veh), C12orf56 (ProbeSet 11735607_a_at) / Fold change (Aza/veh), FGFR1OP (ProbeSet 11751329_s_at) / Fold change (ACY-1035/veh), FGFR1OP (ProbeSet 11751329_s_at) / Fold change (Aza/veh), VPS36 (ProbeSet 11739960_a_at) / Fold change (ACY-1035/veh), VPS36 (ProbeSet 11739960_a_at) / RFU SYPL1 (11715823_x_at) / Fold change /veh SYPL1 (11715823_x_at) / RFU IGFBP7 (11715501_s_at) / Fold change /veh IGFBP7 (11715501_s_at) / RFU REEP3 (11722064_at) / Fold change /veh REEP3 (11722064_at) / RFU IGLL1 (11728026_x_at) / Fold change /veh IGLL1 (11728026_x_at): dose or concentration left out as unconfirmed
Conditions: ProbeSet 11738335_x_at; LIST B

**Q.** Which “RFU, TP53” value does the source give for `Nc1ccc(-c2cccs2)cc1NC(=O)c1ccc2c(c1)cc(C1CC1)n2CCN1CCOCC1` [ACY-1035] here?
**A.** Its value is 73.59 RFU.
